Results: US11247990B1, “Bicyclic fused pyridine compounds as inhibitors of TAM kinases” (ARRAY BIOPHARMA INC., priority 2017, dated 2022)
pIC50: −log10 of the molar value.

Biological target: His-tagged recombinant human MER cytoplasmic domain (Homo sapiens (Human), UniProt Q12866)
Experiment: MER Enzyme Assay (LanthaScreen Eu Kinase Binding, TR-FRET)
Details: averaged IC50
Procedure: Compounds of Formula I were screened for their ability to inhibit MER kinase using Invitrogen's LanthaScreen™ Eu Kinase Binding technology. […] After a 60-minute incubation at 22° C., the reaction was measured using a PerkinElmer EnVision multimode plate reader via TR-FRET dual wavelength detection, and the percent of control (POC) was calculated using a ratiometric emission factor. […] The POC values are fit to a 4 parameter logistic curve and the IC50 value is point where the curve crosses 50 POC.

His-tagged recombinant human MER cytoplasmic domain, sequence (Q12866 527-999): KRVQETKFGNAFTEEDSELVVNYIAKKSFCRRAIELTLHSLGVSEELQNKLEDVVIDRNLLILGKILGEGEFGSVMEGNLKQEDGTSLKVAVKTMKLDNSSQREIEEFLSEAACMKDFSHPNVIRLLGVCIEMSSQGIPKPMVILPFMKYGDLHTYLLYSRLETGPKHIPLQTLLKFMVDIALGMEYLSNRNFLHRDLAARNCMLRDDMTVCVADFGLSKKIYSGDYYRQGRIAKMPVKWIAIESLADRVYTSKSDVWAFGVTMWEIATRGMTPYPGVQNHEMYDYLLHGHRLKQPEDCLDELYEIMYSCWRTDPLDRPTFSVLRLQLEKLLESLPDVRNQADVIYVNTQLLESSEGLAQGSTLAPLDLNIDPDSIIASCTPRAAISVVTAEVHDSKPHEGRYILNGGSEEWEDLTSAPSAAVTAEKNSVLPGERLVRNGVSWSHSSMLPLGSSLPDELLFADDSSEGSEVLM

| SMILES | pIC50 |
| --- | --- |
| CCNc1cc2c(cn1)c(-c1cnn(C)c1)nn2[C@H]1CC[C@@H](Oc2cccnc2C(C)C)CC1 [Example 192, N-ethyl-1-((1s,4s)-4-((2-isopropylpyridin-3-yl)oxy)cyclohexyl)-3-(1-methyl-1H-pyrazol-4-yl)-1H-pyrazolo[4,3-c]pyridin-6-amine] | > 8.00 |
| CCNc1cc2c(cn1)c(-c1cnn(C)c1)nn2[C@H]1CC[C@@H](Oc2cccnc2CC)CC1 [Example 193, N-ethyl-1-((1s,4s)-4-((2-ethylpyridin-3-yl)oxy)cyclohexyl)-3-(1-methyl-1H-pyrazol-4-yl)-1H-pyrazolo[4,3-c]pyridin-6-amine] | > 8.00 |
| CCNc1cc2c(cn1)c(-c1cnn(C)c1)nn2[C@H]1CC[C@@H](Oc2cc(C#N)ccn2)CC1 [Example 200, 2-(((1s,4s)-4-(6-(ethylamino)-3-(1-methyl-1H-pyrazol-4-yl)-1H-pyrazolo[4,3-c]pyridin-1-yl)cyclohexyl)oxy)isonicotinonitrile] | > 8.00 |
| CCNc1cc2c(cn1)c(-c1cnn(C)c1)nn2[C@H]1CC[C@@H](Oc2cnnn2CC)CC1 [Example 225, N-ethyl-1-((1 s,4s)-4-((1-ethyl-1H-1,2,3-triazol-5-yl)oxy)cyclohexyl)-3-(1-methyl-1H-pyrazol-4-yl)-1H-pyrazolo[4,3-c]pyridin-6-amine] | > 8.00 |
| CCNc1cc2c(cn1)c(-c1ccc(CN3CCN(C)CC3)cc1)nn2[C@H]1CC[C@@H](Oc2cn(C)nc2C)CC1 [Example 229, 1-((1s,4s)-4-((1,3-dimethyl-1H-pyrazol-4-yl)oxy)cyclohexyl)-N-ethyl-3-(4-((4-methylpiperazin-1-yl)methyl)phenyl)-1H-pyrazolo[4,3-c]pyridin-6-amine] | > 8.00 |
| CCNc1cc2c(cn1)c(-c1ccc3c(c1)CNC3=O)nn2[C@H]1CC[C@@H](Oc2cn(C)nc2C)CC1 [Example 230, 5-(1-((1s,4s)-4-((1,3-dimethyl-1H-pyrazol-4-yl)oxy)cyclohexyl)-6-(ethylamino)-1H-pyrazolo[4,3-c]pyridin-3-yl)isoindolin-1-one] | > 8.00 |
| CCNc1cc2c(cn1)c(-c1ccc(C(=O)NC3CC3)cc1)nn2[C@H]1CC[C@@H](Oc2cn(C)nc2C)CC1 [Example 231, N-cyclopropyl-4-(1-((1s,4s)-4-((1,3-dimethyl-1H-pyrazol-4-yl)oxy)cyclohexyl)-6-(ethylamino)-1H-pyrazolo[4,3-c]pyridin-3-yl)benzamide] | > 8.00 |
| CCNc1cc2c(cn1)c(-c1ccc(CN3CCN(C)CC3)cc1)nn2[C@H]1CC[C@@H](Oc2cnn(C)c2)CC1 [Example 233, N-ethyl-1-((1s,4s)-4-((1-methyl-1H-pyrazol-4-yl)oxy)cyclohexyl)-3-(4-((4-methylpiperazin-1-yl)methyl)phenyl)-1H-pyrazolo[4,3-c]pyridin-6-amine] | > 8.00 |
| CCNc1cc2c(cn1)c(-c1cnn(C[C@@H](O)CO)c1)nn2[C@H]1CC[C@@H](Oc2ccnc(C(F)(F)F)n2)CC1 [Example 241, (R)-3-(4-(6-(ethylamino)-1-((1s,4S)-4-((2-(trifluoromethyl)pyrimidin-4-yl)oxy)cyclohexyl)-1H-pyrazolo[4,3-c]pyridin-3-yl)-1H-pyrazol-1-yl)propane-1,2-diol] | > 8.00 |
| CCNc1cc2c(cn1)c(-c1cnc(OC)nc1)nn2[C@H]1CC[C@@H](Oc2nccc(C(F)(F)F)c2F)CC1 [Example 269, N-ethyl-1-((1s,4s)-4-((3-fluoro-4-(trifluoromethyl)pyridin-2-yl)oxy)cyclohexyl)-3-(2-methoxypyrimidin-5-yl)-1H-pyrazolo[4,3-c]pyridin-6-amine] | > 8.00 |
| CCNc1cc2c(cn1)c(C1CCCOC1)nn2[C@H]1CC[C@@H](Oc2nccc(C(F)(F)F)c2F)CC1 (stereo partly shown) [Example 318, N-ethyl-1-((1s,4s)-4-((3-fluoro-4-(trifluoromethyl)pyridin-2-yl)oxy)cyclohexyl)-3-(tetrahydro-2H-pyran-3-yl)-1H-pyrazolo[4,3-c]pyridin-6-amine] | > 8.00 |
| CNc1cc2c(cn1)c(-c1cnn(C)c1)nn2[C@H]1CC[C@@H](Oc2c(F)cccc2F)CC1 [Example 356, 1-((1s,4s)-4-(2,6-difluorophenoxy)cyclohexyl)-N-methyl-3-(1-methyl-1H-pyrazol-4-yl)-1H-pyrazolo[4,3-c]pyridin-6-amine] | > 8.00 |

Second part, the molecule after the results:

| pIC50 | SMILES |
| --- | --- |
| > 8.00 | CNc1cc2c(cn1)c(-c1cnn(C)c1)nn2[C@H]1CC[C@@H](Oc2ccc(=O)[nH]c2)CC1 [Example 25, 5-(((1s,4s)-4-(3-(1-methyl-1H-pyrazol-4-yl)-6-(methylamino)-1H-pyrazolo[4,3-c]pyridin-1-yl)cyclohexyl)oxy)pyridin-2(1H)-one] |
| > 8.00 | CCNc1cc2c(cn1)c(-c1ccc(CN3CCN(CCOC)CC3)cc1)nn2[C@H]1CC[C@@H](Oc2ccc(=O)n(C)n2)CC1 [Example 82, 6-(((1s,4s)-4-(6-(ethylamino)-3-(4-((4-(2-methoxyethyl)piperazin-1-yl)methyl)phenyl)-1H-pyrazolo[4,3-c]pyridin-1-yl)cyclohexyl)oxy)-2-methylpyridazin-3(2H)-one] |
| > 8.00 | CCNc1cc2c(cn1)c(-c1ccc(CN3CC[C@@H](OC)C3)cc1)nn2[C@H]1CC[C@@H](Oc2ccc(=O)n(C)n2)CC1 [Example 83, 6-(((1S,4s)-4-(6-(ethylamino)-3-(4-(((R)-3-methoxypyrrolidin-1-yl)methyl)phenyl)-1H-pyrazolo[4,3-c]pyridin-1-yl)cyclohexyl)oxy)-2-methylpyridazin-3(2H)-one] |
| > 8.00 | CCNc1cc2c(cn1)c(-c1ccc(CN3CC(C)(O)C3)cc1)nn2[C@H]1CC[C@@H](Oc2ccc(=O)n(C)n2)CC1 [Example 90, 6-(((1s,4s)-4-(6-(ethylamino)-3-(4-((3-hydroxy-3-methylazetidin-1-yl)methyl)phenyl)-1H-pyrazolo[4,3-c]pyridin-1-yl)cyclohexyl)oxy)-2-methylpyridazin-3(2H)-one] |
| > 8.00 | CCNc1cc2c(cn1)c(-c1ccc(CN3CC[C@@H](CO)C3)cc1)nn2[C@H]1CC[C@@H](Oc2ccc(=O)n(C)n2)CC1 [Example 95, 6-(((1S,4s)-4-(6-(ethylamino)-3-(4-(((R)-3-(hydroxymethyl)pyrrolidin-1-yl)methyl)phenyl)-1H-pyrazolo[4,3-c]pyridin-1-yl)cyclohexyl)oxy)-2-methylpyridazin-3(2H)-one] |
| > 8.00 | CCNc1cc2c(cn1)c(-c1ccc(CN3C[C@H](C)[C@@H](O)C3)cc1)nn2[C@H]1CC[C@@H](Oc2ccc(=O)n(C)n2)CC1 [Example 96, 6-(((1S,4s)-4-(6-(ethylamino)-3-(4-(((3R,4S)-3-hydroxy-4-methylpyrrolidin-1-yl)methyl)phenyl)-1H-pyrazolo[4,3-c]pyridin-1-yl)cyclohexyl)oxy)-2-methylpyridazin-3(2H)-one] |
| > 8.00 | CCNc1cc2c(cn1)c(-c1ccc(CN3CC[C@@H](C)C3)cc1)nn2C1CCC(Oc2ccc(=O)n(C)n2)CC1 (stereo partly drawn) [Example 98, 6-(((1S,4s)-4-(6-(ethylamino)-3-(4-(((R)-3-methylpyrrolidin-1-yl)methyl)phenyl)-1H-pyrazolo[4,3-c]pyridin-1-yl)cyclohexyl)oxy)-2-methylpyridazin-3(2H)-one] |
| > 8.00 | CCNc1cc2c(cn1)c(Br)nn2[C@H]1CC[C@@H](Oc2ccc(=O)[nH]c2C(F)(F)F)CC1 [Example 106] |
| > 8.00 | CNc1cc2c(cn1)c(-c1cnn(C)c1)nn2[C@H]1CC[C@@H](Oc2cccc(=O)n2C)CC1 [Example 110, 1-methyl-6-(((1s,4s)-4-(3-(1-methyl-1H-pyrazol-4-yl)-6-(methylamino)-1H-pyrazolo[4,3-c]pyridin-1-yl)cyclohexyl)oxy)pyridin-2(1H)-one] |
| > 8.00 | CNc1cc2c(cn1)c(-c1cnn(C)c1)nn2[C@H]1CC[C@@H](Oc2cccnc2OC)CC1 [Example 142, 1-((1s,4s)-4-((2-methoxypyridin-3-yl)oxy)cyclohexyl)-N-methyl-3-(1-methyl-1H-pyrazol-4-yl)-1H-pyrazolo[4,3-c]pyridin-6-amine] |
| > 8.00 | CNc1cc2c(cn1)c(-c1cnn(C)c1)nn2[C@H]1CC[C@@H](Oc2ccnn2C)CC1 [Example 143, N-methyl-3-(1-methyl-1H-pyrazol-4-yl)-1-((1s,4s)-4-((1-methyl-1H-pyrazol-5-yl)oxy)cyclohexyl)-1H-pyrazolo[4,3-c]pyridin-6-amine] |
| > 8.00 | CNc1cc2c(cn1)c(-c1cnn(C)c1)nn2[C@H]1CC[C@@H](Oc2nccc(C(F)(F)F)n2)CC1 [Example 153, N-methyl-3-(1-methyl-1H-pyrazol-4-yl)-1-((1s,4s)-4-((4-(trifluoromethyl)pyrimidin-2-yl)oxy)cyclohexyl)-1H-pyrazolo[4,3-c]pyridin-6-amine] |
| > 8.00 | CCNc1cc2c(cn1)c(-c1cnn(C(C)(C)C#N)c1)nn2[C@H]1CC[C@@H](Oc2nccnc2C)CC1 [Example 181, 2-(4-(6-(ethylamino)-1-((1s,4s)-4-((3-methylpyrazin-2-yl)oxy)cyclohexyl)-1H-pyrazolo[4,3-c]pyridin-3-yl)-1H-pyrazol-1-yl)-2-methylpropanenitrile] |
| > 8.00 | CCNc1cc2c(cn1)c(-c1cnn(C)c1)nn2[C@H]1CC[C@@H](Oc2cccnc2C)CC1 [Example 185, N-ethyl-3-(1-methyl-1H-pyrazol-4-yl)-1-((1s,4s)-4-((2-methylpyridin-3-yl)oxy)cyclohexyl)-1H-pyrazolo[4,3-c]pyridin-6-amine] |
| > 8.00 | CCNc1cc2c(cn1)c(-c1cnn(C)c1)nn2[C@H]1CC[C@@H](Oc2cccnc2C2CC2)CC1 [Example 186, 1-((1s,4s)-4-((2-cyclopropylpyridin-3-yl)oxy)cyclohexyl)-N-ethyl-3-(1-methyl-1H-pyrazol-4-yl)-1H-pyrazolo[4,3-c]pyridin-6-amine] |
| > 8.00 | CCNc1cc2c(cn1)c(-c1cnn(C)c1)nn2[C@H]1CC[C@@H](Oc2nccnc2C)CC1 [Example 189, N-ethyl-3-(1-methyl-1H-pyrazol-4-yl)-1-((1s,4s)-4-((3-methylpyrazin-2-yl)oxy)cyclohexyl)-1H-pyrazolo[4,3-c]pyridin-6-amine] |
